Assay results published in the supplement of paper PMC11208160.

Test: recombinant barcode read abundance after kanamycin selection (control-corrected) (log10(CPM+1)); higher = more efficient recombination; sequences stand for … in AGTGCAGAGAAAATCGGCCAGTTTTCTCTGCCTGCAGTCCGCATGCCGT…ATTTATGCAGCGGACTGCCTTTCTCCCAAAGTGATAAACCGGACAGTATCATGGACCGGTTTTCCCGGTAATCCGTATTTGCAAGGTTGGTTTCACT; site = the 11-nt target
Procedure, shortened: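 Pooled oligos, each joining a target to an IS621 bridge RNA target-binding loop, were cloned and co-electroporated with a donor plasmid into E. coli. Selective plates carried chloramphenicol/ampicillin/kanamycin and 0.1 mM IPTG, while chloramphenicol/ampicillin LB agar served as control, with two replicates of each. Recombination efficiency rests on averaged, control-corrected counts per million of barcodes at recombinant junctions, shown as log10(CPM+1).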

Sequence | recombinant barcode read abundance (log10)
CGGTCCCTATGGGTTCTAACCTGTTGCCATA [CGGTCCCCTTG_LTGcore_TA_RTGcore_TA] (site CGGTCCCCTTG) (LTG core: TA, RTG core: TA) | 0.282
CGGTCCCTGTGGGTTCTAACCTGTTGCCAAG [CGGTCCCCTTG_LTGcore_TG_RTGcore_CT] (site CGGTCCCCTTG) (LTG core: TG, RTG core: CT) | 0.0242
CGGTCCCTTTGGGTTCTAACCTGTTGCCAAA [CGGTCCCCTTG_LTGcore_TT_RTGcore_TT] (site CGGTCCCCTTG) (LTG core: TT, RTG core: TT) | 0.0728
GAGCCCAAATGGGTTCTAACCTGTTGCCTAG [GAGCCCACTAG_LTGcore_AA_RTGcore_CT] (site GAGCCCACTAG) (LTG core: AA, RTG core: CT) | 0.0475
GAGCCCACTTGGGTTCTAACCTGTTGCCTCA [GAGCCCACTAG_LTGcore_CT_RTGcore_TG] (site GAGCCCACTAG) (LTG core: CT, RTG core: TG) | 0.593
GAGCCCACTTGGGTTCTAACCTGTTGCCTCG [GAGCCCACTAG_LTGcore_CT_RTGcore_CG] (site GAGCCCACTAG) (LTG core: CT, RTG core: CG) | 0.1
GAGCCCACTTGGGTTCTAACCTGTTGCCTTA [GAGCCCACTAG_LTGcore_CT_RTGcore_TA] (site GAGCCCACTAG) (LTG core: CT, RTG core: TA) | 0.296
GAGCCCAGATGGGTTCTAACCTGTTGCCTAG [GAGCCCACTAG_LTGcore_GA_RTGcore_CT] (site GAGCCCACTAG) (LTG core: GA, RTG core: CT) | 0.163
GAGCCCAGATGGGTTCTAACCTGTTGCCTTC [GAGCCCACTAG_LTGcore_GA_RTGcore_GA] (site GAGCCCACTAG) (LTG core: GA, RTG core: GA) | 0.057
GAGCCCATATGGGTTCTAACCTGTTGCCTAG [GAGCCCACTAG_LTGcore_TA_RTGcore_CT] (site GAGCCCACTAG) (LTG core: TA, RTG core: CT) | 0.101
GAGCCCATGTGGGTTCTAACCTGTTGCCTAG [GAGCCCACTAG_LTGcore_TG_RTGcore_CT] (site GAGCCCACTAG) (LTG core: TG, RTG core: CT) | 0.0858
GAGCCCATTTGGGTTCTAACCTGTTGCCTAG [GAGCCCACTAG_LTGcore_TT_RTGcore_CT] (site GAGCCCACTAG) (LTG core: TT, RTG core: CT) | 0.0489
GAGGCCTAATGGGTTCTAACCTGTTGCCAAG [GAGGCCTCTTG_LTGcore_AA_RTGcore_CT] (site GAGGCCTCTTG) (LTG core: AA, RTG core: CT) | 0.153
GAGGCCTAGTGGGTTCTAACCTGTTGCCAAG [GAGGCCTCTTG_LTGcore_AG_RTGcore_CT] (site GAGGCCTCTTG) (LTG core: AG, RTG core: CT) | 0.106
GAGGCCTAGTGGGTTCTAACCTGTTGCCACT [GAGGCCTCTTG_LTGcore_AG_RTGcore_AG] (site GAGGCCTCTTG) (LTG core: AG, RTG core: AG) | 0.159
GAGGCCTCGTGGGTTCTAACCTGTTGCCAAG [GAGGCCTCTTG_LTGcore_CG_RTGcore_CT] (site GAGGCCTCTTG) (LTG core: CG, RTG core: CT) | 0.218
GAGGCCTCTTGGGTTCTAACCTGTTGCCAAG [GAGGCCTCTTG_LTGcore_CT_RTGcore_CT] (site GAGGCCTCTTG) (LTG core: CT, RTG core: CT) | 1.82
GAGGCCTCTTGGGTTCTAACCTGTTGCCACA [GAGGCCTCTTG_LTGcore_CT_RTGcore_TG] (site GAGGCCTCTTG) (LTG core: CT, RTG core: TG) | 0.453
GAGGCCTCTTGGGTTCTAACCTGTTGCCACT [GAGGCCTCTTG_LTGcore_CT_RTGcore_AG] (site GAGGCCTCTTG) (LTG core: CT, RTG core: AG) | 0.379
